Results: article PMC9297976 (Journal of Applied Toxicology, 2021)

Assays:
[1] = target: T1, medaka Esr1 (mEsr1) (Oryzias latipes, UniProt P50241); experiment: cell-based; set-up: species or system Japanese medaka (Oryzias latipes)
T1 sequence (P50241 1-620): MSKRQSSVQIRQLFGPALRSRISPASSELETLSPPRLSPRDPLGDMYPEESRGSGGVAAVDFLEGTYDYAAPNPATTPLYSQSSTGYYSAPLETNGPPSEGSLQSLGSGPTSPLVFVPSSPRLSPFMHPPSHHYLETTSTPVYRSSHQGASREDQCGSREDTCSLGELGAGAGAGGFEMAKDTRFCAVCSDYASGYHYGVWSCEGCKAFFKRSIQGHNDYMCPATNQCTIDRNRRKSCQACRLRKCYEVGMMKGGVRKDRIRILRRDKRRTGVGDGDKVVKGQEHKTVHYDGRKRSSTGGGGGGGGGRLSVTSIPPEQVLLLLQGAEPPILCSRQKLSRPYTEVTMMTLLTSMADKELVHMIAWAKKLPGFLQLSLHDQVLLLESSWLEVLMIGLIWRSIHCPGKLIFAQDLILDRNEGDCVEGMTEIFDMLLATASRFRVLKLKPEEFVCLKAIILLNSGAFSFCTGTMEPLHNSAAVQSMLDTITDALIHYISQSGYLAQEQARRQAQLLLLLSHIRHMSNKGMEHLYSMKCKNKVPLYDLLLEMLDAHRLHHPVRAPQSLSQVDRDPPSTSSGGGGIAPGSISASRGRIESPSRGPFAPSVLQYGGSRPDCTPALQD

[2] = target: T1, medaka Esr1 (mEsr1); experiment: Medaka Esr1 reporter gene assay, antagonist assay; type: cell-based, Japanese medaka (Oryzias latipes); settings: E2 spiked at 1.0 nM (B); MAC = 1.0 × 10^−5 M
[3] = target: T2, medaka ARβ (mArβ) (Oryzias latipes, UniProt D1MV73); experiment: Medaka ARβ reporter gene assay, agonist assay; type: cell-based, Japanese medaka (Oryzias latipes); settings: MAC = 1.0 × 10^−5 M
T2 sequence (D1MV73 1-744): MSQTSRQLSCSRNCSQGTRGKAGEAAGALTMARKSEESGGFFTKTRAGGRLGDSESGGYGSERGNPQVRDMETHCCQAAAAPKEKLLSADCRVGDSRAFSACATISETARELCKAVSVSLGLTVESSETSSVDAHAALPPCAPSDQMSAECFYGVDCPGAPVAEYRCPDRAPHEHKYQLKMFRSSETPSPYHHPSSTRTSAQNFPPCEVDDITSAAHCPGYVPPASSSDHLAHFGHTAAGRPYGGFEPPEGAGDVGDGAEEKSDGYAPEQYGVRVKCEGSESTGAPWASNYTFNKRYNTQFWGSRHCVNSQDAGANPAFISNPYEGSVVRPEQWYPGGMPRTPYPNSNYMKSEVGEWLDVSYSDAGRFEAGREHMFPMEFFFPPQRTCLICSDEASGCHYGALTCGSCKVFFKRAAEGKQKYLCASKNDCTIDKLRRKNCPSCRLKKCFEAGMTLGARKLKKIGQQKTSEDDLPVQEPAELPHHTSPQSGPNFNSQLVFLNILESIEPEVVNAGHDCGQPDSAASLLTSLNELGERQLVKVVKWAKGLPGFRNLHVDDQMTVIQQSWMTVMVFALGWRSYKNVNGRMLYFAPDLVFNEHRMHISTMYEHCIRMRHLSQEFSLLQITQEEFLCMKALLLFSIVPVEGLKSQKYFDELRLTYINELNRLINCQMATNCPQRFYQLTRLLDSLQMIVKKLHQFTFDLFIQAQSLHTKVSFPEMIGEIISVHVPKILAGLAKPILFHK

[4] = target: T2, medaka ARβ (mArβ); experiment: Medaka ARβ reporter gene assay, antagonist assay; type: cell-based, Japanese medaka (Oryzias latipes); settings: 11‐KT spiked at 50 nM (D); MAC = 1.0 × 10^−5 M
[5] = tested on: Japanese medaka (Oryzias latipes); experiment: Fish Short‐Term Reproduction Assay; type: in vivo; settings: for GSI Female / GSI Male / HSI Female / HSI Male / Length Female / Length Male / Weight Female / Weight Male: completion of exposure
[6] = ref Brooke et al., 2009; Saeger et al., 1979; cited from earlier work
[7] = 44.9 μg/L measured, 21 d, sig. ↓ vs control
[8] = measured concentration 2.13 μg/L
[9] = measured concentration 7.19 μg/L
[10] = measured concentration 17.1 μg/L
[11] = measured concentration 44.9 μg/L

O=P(Oc1ccccc1)(Oc1ccccc1)Oc1ccccc1 [TPP, Triphenyl phosphate]
EC50 [1]: 9.7 µM
In vitro positive: Esr ([1]; mode of action in which EC50 or PC10 was obtained in RGA): Esr
Antagonistic activity [2]: NE (MAC = 1.0 × 10^−5 M)^(B)
Agonistic activity [3]: NE (MAC = 1.0 × 10^−5 M)
Antagonistic activity [4]: NE (MAC = 1.0 × 10^−5 M)^(D)
Fertility rate ([5]; 2.13 μg/L measured, 21 d): 89 ± 4.9%
Hepatic VTG, female ([5]; 2.13 μg/L measured, 21 d): 542 ± 115 ng/mg‐liver
Hepatic VTG, male ([5]; 2.13 μg/L measured, 21 d): 6.9 ± 4.0 ng/mg‐liver
Mortality ([5]; 2.13 μg/L measured, 21 d): 0.0%
Mortality, number of dead fish ([5]; 2.13 μg/L measured, 21 d): 0
Number of fertilized eggs (per female per day) ([5]; 2.13 μg/L measured, 21 d): 18 ± 3.1
Number of total eggs (per female per day) ([5]; 2.13 μg/L measured, 21 d): 20 ± 2.7
SSC female (joint plates with papillary processes) ([5]; 2.13 μg/L measured, 21 d): 0 ± 0
SSC male (joint plates with papillary processes) ([5]; 2.13 μg/L measured, 21 d): 83 ± 7.4
Fertility rate ([5]; 7.19 μg/L measured, 21 d): 91 ± 3.8%
Hepatic VTG, male ([5]; 7.19 μg/L measured, 21 d): 8.4 ± 9.0 ng/mg‐liver
Mortality ([5]; 7.19 μg/L measured, 21 d): 0.0%
Mortality, number of dead fish ([5]; 7.19 μg/L measured, 21 d): 0
Number of fertilized eggs (per female per day) ([5]; 7.19 μg/L measured, 21 d): 17 ± 3.4
Number of total eggs (per female per day) ([5]; 7.19 μg/L measured, 21 d): 19 ± 3.1
SSC female (joint plates with papillary processes) ([5]; 7.19 μg/L measured, 21 d): 0 ± 0
SSC male (joint plates with papillary processes) ([5]; 7.19 μg/L measured, 21 d): 84 ± 6.9
Hepatic VTG, female ([5]; 7.19 μg/L measured, 21 d, sig. ↓ vs control): 360 ± 60 ng/mg‐liver
Fertility rate ([5]; 17.1 μg/L measured, 21 d): 93 ± 2.2%
Hepatic VTG, male ([5]; 17.1 μg/L measured, 21 d): 11 ± 9.4 ng/mg‐liver
Mortality ([5]; 17.1 μg/L measured, 21 d): 0.0%
Mortality, number of dead fish ([5]; 17.1 μg/L measured, 21 d): 0
Number of fertilized eggs (per female per day) ([5]; 17.1 μg/L measured, 21 d): 19 ± 1.8
Number of total eggs (per female per day) ([5]; 17.1 μg/L measured, 21 d): 20 ± 2.0
SSC female (joint plates with papillary processes) ([5]; 17.1 μg/L measured, 21 d): 0 ± 0
SSC male (joint plates with papillary processes) ([5]; 17.1 μg/L measured, 21 d): 83 ± 7.2
Hepatic VTG, female ([5]; 17.1 μg/L measured, 21 d, sig. ↓ vs control): 420 ± 77 ng/mg‐liver
Fertility rate ([5]; 44.9 μg/L measured, 21 d): 91 ± 3.9%
Hepatic VTG, male ([5]; 44.9 μg/L measured, 21 d): 8.8 ± 8.1 ng/mg‐liver
Mortality ([5]; 44.9 μg/L measured, 21 d): 4.2%
Mortality, number of dead fish ([5]; 44.9 μg/L measured, 21 d): 1
SSC female (joint plates with papillary processes) ([5]; 44.9 μg/L measured, 21 d): 0 ± 0
SSC male (joint plates with papillary processes) ([5]; 44.9 μg/L measured, 21 d): 90 ± 8.0
Hepatic VTG, female [5, 7]: 417 ± 70 ng/mg‐liver
Number of fertilized eggs (per female per day) [5, 7]: 15 ± 3.5
Number of total eggs (per female per day) [5, 7]: 16 ± 3.2
Fecundity, number of total eggs (in words) ([5]; 21 d): statistically significant decrease
LOECmVTG ([5]; LOEC on VTG induction in males): ND (>44.9) μg/L
LOECREPRO ([5]; LOEC on reproduction (fecundity and/or fertility)): 44.9 µg/L
Fertility rate (in words) ([5]; chemicals with significant decrease of number of total eggs): no significant effect
LOECREPRO (reduction in fecundity or fertility) ([5]; concentrations without overt toxicity): 44.9 µg/L
LOECTOX ([5]; lowest observed effect concentration on mortality): ND (>44.9) μg/L
GSI Female [5, 8]: 7.9 ± 0.5%
GSI Male [5, 8]: 0.87 ± 0.17%
HSI Female [5, 8]: 3.5 ± 0.39%
HSI Male [5, 8]: 1.4 ± 0.12%
Length Female [5, 8]: 35.3 ± 0.7 mm
Length Male [5, 8]: 37.9 ± 1.1 mm
Weight Female [5, 8]: 449 ± 19 mg
Weight Male [5, 8]: 532 ± 44 mg
GSI Female [5, 9]: 8.1 ± 0.6%
GSI Male [5, 9]: 0.95 ± 0.09%
HSI Female [5, 9]: 3.1 ± 0.21%
HSI Male [5, 9]: 1.7 ± 0.29%
Length Female [5, 9]: 35.5 ± 0.3 mm
Length Male [5, 9]: 38.0 ± 1.1 mm
Weight Female [5, 9]: 464 ± 27 mg
Weight Male [5, 9]: 544 ± 49 mg
GSI Female [5, 10]: 7.7 ± 0.7%
GSI Male [5, 10]: 0.94 ± 0.10%
HSI Female [5, 10]: 3.6 ± 0.46%
HSI Male [5, 10]: 1.7 ± 0.24%
Length Female [5, 10]: 35.2 ± 1.0 mm
Length Male [5, 10]: 37.7 ± 1.0 mm
Weight Female [5, 10]: 468 ± 34 mg
Weight Male [5, 10]: 539 ± 31 mg
GSI Female [5, 11]: 9.4 ± 1.3%
GSI Male [5, 11]: 0.80 ± 0.07%
HSI Female [5, 11]: 3.6 ± 0.60%
HSI Male [5, 11]: 1.7 ± 0.13%
Length Female [5, 11]: 34.4 ± 0.4 mm
Length Male [5, 11]: 38.3 ± 1.1 mm
Weight Female [5, 11]: 432 ± 32 mg
Weight Male [5, 11]: 583 ± 68 mg
Water solubility [6]: 1 to 1.9 mg/L
